Results on 3 substances are retold here after article PMC9784689, “Bioactivity Profiling of In Silico Predicted Linear Toxins from the Ants Myrmica rubra and Myrmica ruginodis” (Toxins, 2022).

The test system of data set [1] is Escherichia coli DE3 (BL21(DE3)). Particulars: at least 95% growth inhibition, nine log2 dilutions, triplicate, MH II, 48 h.
Protocol: (§1) Cryo-conserved cultures (Table 3) were transferred with a sterile inoculation loop to tryptic soy agar (TSA) plates (Carl Roth) sealed with Parafilm (BEMIS, Neenah, WI, USA), and were incubated for 1–2 days at 37 °C depending on growth rates. Plates were then stored at 4 °C. For each of the three replicates, single colonies were picked with a sterile pipette tip, transferred into 2–3 mL Mueller-Hinton II (MH II) medium (BD, Heidelberg, Germany) and cultivated for ~24 h in unsealed 15 mL reaction tubes at 37 °C, shaking at 180 rpm. […] We measured the optical density at 600 nm (OD600) by transferring 1 mL of bacterial suspension to a polystyrene cuvette (SARSTED, Nümbrecht, Germany) in an Ultrospec 10 photometer (Biochrome, Cambridge, UK). […]
(§2) The experiments were carried out in 96-multiwell plates with a final volume of 100 µL per well (50 µL of bacterial suspension; 50 µL of testing peptide with a final concentration of 1.9% DMSO). […] The OD600 was measured after 0, 24, and 48 h using a BioTek Eon microplate reader and Gen5 v2.09. One experiment was carried out with automatic OD600 measurement every 20 min with a prior 30 s double orbital rotation at 237 rpm with overall incubation at 37 °C for 60 h in the microplate reader. […]
Data set [2] relates to Staphylococcus epidermidis (ATCC 35984; DSM 28319). Particulars: S. epidermidis, 100 µM, after 48 h, MH II medium, 37 °C, OD600 normalized to untreated bacteria, triplicate.
The test system of data set [3] is Listeria monocytogenes (DSM 20600). The class given is cell-based. Particulars: 20 µL per dilution from 48 h MIC experiments plated on TSA, n = 2.
For data set [4], the system named is Staphylococcus epidermidis (ATCC 35984; DSM 28319). Conditions: at least 95% growth inhibition, nine log2 dilutions, triplicate, MH II, 48 h.
Protocol: as §1, §2
Data set [5] deals with Micrococcus luteus (DSM 20030). The class given is cell-based. Particulars: 20 µL per dilution from 48 h MIC experiments plated on TSA, n = 2.
For data set [6], the system named is Escherichia coli DE3 (BL21(DE3)). Particulars: E. coli, 100 µM, after 48 h, MH II medium, 37 °C, OD600 normalized to untreated bacteria, triplicate.
The test system is the same in data set [7]. It counts as cell-based. Particulars: 20 µL per dilution from 48 h MIC experiments plated on TSA, n = 2.
Data set [8] concerns Staphylococcus aureus (DSM 2569). Particulars: at least 95% growth inhibition, nine log2 dilutions, triplicate, MH II, 48 h.
Protocol: as §1, §2
Data set [9] deals with Staphylococcus epidermidis (ATCC 35984; DSM 28319). The class given is cell-based. Particulars: 20 µL per dilution from 48 h MIC experiments plated on TSA, n = 2.
Data set [10] concerns Micrococcus luteus (DSM 20030). Conditions: M. luteus, 100 µM, after 48 h, MH II medium, 37 °C, OD600 normalized to untreated bacteria, triplicate.
Data set [11] concerns Micrococcus luteus (DSM 20030). Particulars: at least 95% growth inhibition, nine log2 dilutions, triplicate, MH II, 48 h.
Protocol: as §1, §2
Data set [12] deals with MDCK II cells. Conditions: MDCK II cells, 100 µM, 1% DMSO, 48 h, CellTiter-Glo luminescence, triplicate. On the technique in general: Cellular ATP, detected with luciferase, serves as a proxy for viable cell number.
For data set [13], the system named is Staphylococcus aureus (DSM 2569). Particulars: S. aureus, 100 µM, after 48 h, MH II medium, 37 °C, OD600 normalized to untreated bacteria, triplicate.
The test system of data set [14] is Listeria monocytogenes (DSM 20600). Conditions: L. monocytogenes, 100 µM, after 48 h, MH II medium, 37 °C, OD600 normalized to untreated bacteria, triplicate.
For data set [15], the system named is Influenza A/Hessen/1/03 (H3N2) in MDCK II cells. The class given is cell-based, influenza A virus. Conditions: 100 µM peptides, 48 h.
Data set [16] deals with Influenza B/Massachusetts/71 (Yamagata lineage) in MDCK II cells. The class given is cell-based, influenza B virus. Particulars: B/Mass, 100 µM peptides, 48 h.
The test system of data set [17] is Influenza A/Hamburg/5/09 (H1N1) in MDCK II cells. The class given is cell-based, influenza A virus. Particulars: 100 µM peptides, 48 h.
For data set [18], the system named is Escherichia coli, Staphylococcus aureus, Staphylococcus epidermidis, Pseudomonas aeruginosa (strains 50071 and 1117), Micrococcus luteus, Listeria …. The data set can be described thus: Antibacterial activity, statements for the whole panel of seven strains. The class given is cell-based. Conditions: 100 µM, after 48 h, MH II medium, 37 °C, OD600, triplicate.
Data set [19] relates to Influenza B/Malaysia/2506/04 (Victoria lineage) in MDCK II cells. It counts as cell-based, influenza B virus. Conditions: B/Mal, 100 µM peptides, 48 h.
Data set [20] deals with larvae of the greater wax moth (Galleria mellonella). Nature of the data set: Insecticidal activity, injection into larvae. The class given is in vivo. Conditions: G. mellonella larvae, injection of 5 µL of 10 mM stock in DMSO/water, at least 72 h, 10 specimens.

Read-outs that look alike come from different tables or passages of the source. No end group written: not given here.

Usually MIC stands for the lowest concentration that inhibits growth of the organism. Low readings indicate a more susceptible organism, high ones a less susceptible organism. A word on the Inhibition of growth: it is how much of the control response was suppressed. A word on the MBC: it is the smallest concentration meeting the test's criterion for killing. High values mean weaker bactericidal potency, low ones greater bactericidal potency.

As for INPKLWLKLF-NH2 [U-MYRTX-Mrug5a], the minimal inhibitory concentration (MIC) was 50 µM in [1], 50 µM in [4], 100 µM in data set [8] and 6.25 µM in data set [11]. Besides, the Inhibition of growth was 97% in [2]; 97% in data set [6]; 89% in data set [10]; 96% in data set [13]; 81% in data set [14]. Moreover, the minimal bactericidal concentration (MBC) in data set [3] is 50 µM; in [5], 6.25 µM; in data set [7] it was 50 µM; in data set [9], 50 µM. Further, in [12], the “Cytotoxicity (cell viability), in words” value is reported as “negligible cytotoxicity”.
“INPKLLESL-NH2 (C-terminus assumed) [U-MYRTX-Mrug5b]”: the “Normalized to Aprotinin =1 (protection)” value in data set [15] (replicate 1) was 0.06533; in [15] (replicate 2) it was 0.04634; in data set [15] (replicate 3) it was 0.07887; in [16] (replicate 1), 0.0139; in data set [16] (replicate 2), 0.008064; in [16] (replicate 3), 0.0246. Also, the “Normalized to Aprotinin =1 (protection)” value in data set [17] (replicate 1) turned out to be 0.02999; in [17] (replicate 2) it was 0.0228; in [17] (replicate 3), 0.007801; in [19] (replicate 1) it was 0.03907; in data set [19] (replicate 2), 0.06268; in [19] (replicate 3), 0.0833. In addition, the “Inhibition of bacterial growth, in words” value in [18] was “no significant inhibition of bacterial growth”. Further, in data set [20], the Injected larvae surviving is on record as 80%.
With “IDPKVLESLL-NH2 (C-terminus assumed) [U-MYRTX-Mrug2b]”, the “Normalized to Aprotinin =1 (protection)” value worked out at 0.0328 in [15] (replicate 1); 0.05462 in data set [15] (replicate 2); 0.05537 in data set [15] (replicate 3); 0.01653 in [16] (replicate 1); 0.01885 in [16] (replicate 2); 0.02698 in [16] (replicate 3). For the same substance, the “Normalized to Aprotinin =1 (protection)” value was 0.05063 in data set [17] (replicate 1); 0.0441 in [17] (replicate 2); 0.04545 in [17] (replicate 3); 0.03893 in data set [19] (replicate 1); 0.02764 in data set [19] (replicate 2); 0.1043 in data set [19] (replicate 3). Further, the “Inhibition of bacterial growth, in words” value in data set [18] is listed as “no significant inhibition of bacterial growth”. Moreover, the Injected larvae surviving in data set [20] was determined as 80%.
